Measurements from PMC10247784, “Physiological activation of human and mouse bitter taste receptors by bile acids” (Communications Biology, 2023).
Several values for one entry are separate records, joined by “and”; a condition that tells them apart may be missing. Identical values can stand only once.

Biological target: T1, human TAS2R4 (Homo sapiens, UniProt Q9NYW5)
T1 construct: expressed in transfected cells; host or cells: HEK293T-Gα16gust44
T1 sequence (Q9NYW5 1-299): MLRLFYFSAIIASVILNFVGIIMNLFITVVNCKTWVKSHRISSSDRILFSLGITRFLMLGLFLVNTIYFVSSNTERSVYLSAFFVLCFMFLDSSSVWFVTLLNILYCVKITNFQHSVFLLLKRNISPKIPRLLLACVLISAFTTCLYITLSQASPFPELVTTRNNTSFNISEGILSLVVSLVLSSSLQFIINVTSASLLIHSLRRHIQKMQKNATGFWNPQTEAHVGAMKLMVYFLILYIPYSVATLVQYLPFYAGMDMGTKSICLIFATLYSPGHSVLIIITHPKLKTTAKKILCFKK
Assay: Calcium imaging assay (FLIPR), HEK293T-Gα16gust44 cells transfected with human TAS2R4
Type: cell-based
Outline: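 Fluo-4 calcium responses; ΔF/F corrected for mock transfection and buffer control; triplicate independent dose-response runs; p < 0.01 threshold.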

Efficacy = maximal amplitude (ΔF/F) (TAS2R4, bile acids, mean): 0.08533 | Efficacy (maximal amplitude ΔF/F), individual data points (TAS2R4, bile acids, single replicates, listed as DCA): 0.07628 and 0.1105 and 0.06917 | RLU, fluorescence trace (Time (s) 0): 0 RLU | RLU, fluorescence trace (Time (s) 2): -24.43 RLU | RLU, fluorescence trace (Time (s) 4): -23.5542 RLU | RLU, fluorescence trace (Time (s) 6): -22.8766 RLU | RLU, fluorescence trace (Time (s) 8): -1.905 RLU | RLU, fluorescence trace (Time (s) 12): -21.8648 RLU | RLU, fluorescence trace (Time (s) 14): -18.1346 RLU | RLU, fluorescence trace (Time (s) 16): -52.8215 RLU | RLU, fluorescence trace (Time (s) 18): -24.2064 RLU | RLU, fluorescence trace (Time (s) 18.766 (TCA, TLCA: 18.782)): -22.8202 RLU | RLU, fluorescence trace (Time (s) 20.781 (TCA, TLCA: 20.782)): -95.6069 RLU | RLU, fluorescence trace (Time (s) 22.781 (TCA, TLCA: 22.782)): -71.6568 RLU | RLU, fluorescence trace (Time (s) 24.781 (TCA, TLCA: 24.782)): -40.8819 RLU | RLU, fluorescence trace (Time (s) 26.781 (TCA, TLCA: 26.782)): -9.811 RLU | RLU, fluorescence trace (Time (s) 28.781 (TCA, TLCA: 28.782)): 38.1772 RLU | RLU, fluorescence trace (Time (s) 30.781 (TCA, TLCA: 30.782)): 89.531 RLU | RLU, fluorescence trace (Time (s) 32.781 (TCA, TLCA: 32.782)): 109 RLU | RLU, fluorescence trace (Time (s) 34.781 (TCA, TLCA: 34.782)): 155.799 RLU | RLU, fluorescence trace (Time (s) 36.781 (TCA, TLCA: 36.782)): 198.766 RLU | RLU, fluorescence trace (Time (s) 38.781 (TCA, TLCA: 38.782)): 215 RLU | RLU, fluorescence trace (Time (s) 40.781 (TCA, TLCA: 40.782)): 245.601 RLU | RLU, fluorescence trace (Time (s) 42.781 (TCA, TLCA: 42.782)): 273.234 RLU | RLU, fluorescence trace (Time (s) 44.781 (TCA, TLCA: 44.782)): 289.793 RLU | RLU, fluorescence trace (Time (s) 46.781 (TCA, TLCA: 46.782)): 293.169 RLU | RLU, fluorescence trace (Time (s) 48.781 (TCA, TLCA: 48.782)): 315.257 RLU | RLU, fluorescence trace (Time (s) 50.781 (TCA, TLCA: 50.782)): 327.06 RLU | RLU, fluorescence trace (Time (s) 52.781 (TCA, TLCA: 52.782)): 336.965 RLU | RLU, fluorescence trace (Time (s) 54.781 (TCA, TLCA: 54.782)): 356.774 RLU | RLU, fluorescence trace (Time (s) 56.781 (TCA, TLCA: 56.782)): 358.021 RLU | RLU, fluorescence trace (Time (s) 58.781 (TCA, TLCA: 58.782)): 377.086 RLU | RLU, fluorescence trace (Time (s) 60.781 (TCA, TLCA: 60.782)): 371.413 RLU | RLU, fluorescence trace (Time (s) 62.781 (TCA, TLCA: 62.782)): 354.175 RLU | RLU, fluorescence trace (Time (s) 64.781 (TCA, TLCA: 64.782)): 367.028 RLU | RLU, fluorescence trace (Time (s) 66.781 (TCA, TLCA: 66.782)): 369.018 RLU | RLU, fluorescence trace (Time (s) 68.781 (TCA, TLCA: 68.782)): 401.767 RLU | RLU, fluorescence trace (Time (s) 70.781 (TCA, TLCA: 70.782)): 369.499 RLU | RLU, fluorescence trace (Time (s) 72.781 (TCA, TLCA: 72.782)): 371.417 RLU | RLU, fluorescence trace (Time (s) 74.781 (TCA, TLCA: 74.782)): 395.575 RLU | RLU, fluorescence trace (Time (s) 76.781 (TCA, TLCA: 76.782)): 372.212 RLU | RLU, fluorescence trace (Time (s) 78.781 (TCA, TLCA: 78.782)): 381.123 RLU | RLU, fluorescence trace (Time (s) 80.781 (TCA, TLCA: 80.782)): 377.573 RLU | RLU, fluorescence trace (Time (s) 82.781 (TCA, TLCA: 82.782)): 366.542 RLU | RLU, fluorescence trace (Time (s) 84.781 (TCA, TLCA: 84.782)): 344.412 RLU | RLU, fluorescence trace (Time (s) 86.781 (TCA, TLCA: 86.782)): 365.264 RLU | RLU, fluorescence trace (Time (s) 88.781 (TCA, TLCA: 88.782)): 345.388 RLU | RLU, fluorescence trace (Time (s) 90.781 (TCA, TLCA: 90.782)): 349.245 RLU | RLU, fluorescence trace (Time (s) 92.781 (TCA, TLCA: 92.782)): 348.005 RLU | RLU, fluorescence trace (Time (s) 94.781 (TCA, TLCA: 94.782)): 360.114 RLU | RLU, fluorescence trace (Time (s) 96.781 (TCA, TLCA: 96.782)): 353.364 RLU | RLU, fluorescence trace (Time (s) 98.781 (TCA, TLCA: 98.782)): 356.212 RLU | RLU, fluorescence trace (Time (s) 100.781 (TCA, TLCA: 100.782)): 338.006 RLU | RLU, fluorescence trace (Time (s) 102.781 (TCA, TLCA: 102.782)): 349.375 RLU | RLU, fluorescence trace (Time (s) 104.781 (TCA, TLCA: 104.782)): 357.725 RLU | RLU, fluorescence trace (Time (s) 106.781 (TCA, TLCA: 106.782)): 339.949 RLU | RLU, fluorescence trace (Time (s) 108.781 (TCA, TLCA: 108.782)): 333.434 RLU | RLU, fluorescence trace (Time (s) 110.781 (TCA, TLCA: 110.782)): 336.947 RLU | RLU, fluorescence trace (Time (s) 112.781 (TCA, TLCA: 112.782)): 335.627 RLU | RLU, fluorescence trace (Time (s) 114.781 (TCA, TLCA: 114.782)): 349.641 RLU | RLU, fluorescence trace (Time (s) 116.781 (TCA, TLCA: 116.782)): 340.242 RLU | RLU, fluorescence trace (Time (s) 118.781 (TCA, TLCA: 118.782)): 328.36 RLU | RLU, fluorescence trace (Time (s) 120.781 (TCA, TLCA: 120.782)): 338.913 RLU | RLU, fluorescence trace (Time (s) 122.781 (TCA, TLCA: 122.782)): 364.894 RLU | RLU, fluorescence trace (Time (s) 124.781 (TCA, TLCA: 124.782)): 333.589 RLU | RLU, fluorescence trace (Time (s) 126.781 (TCA, TLCA: 126.782)): 335.132 RLU | RLU, fluorescence trace (Time (s) 128.781 (TCA, TLCA: 128.782)): 319.908 RLU | RLU, fluorescence trace (Time (s) 130.781 (TCA, TLCA: 130.782)): 356.29 RLU | RLU, fluorescence trace (Time (s) 132.781 (TCA, TLCA: 132.782)): 335.417 RLU | RLU, fluorescence trace (Time (s) 134.781 (TCA, TLCA: 134.782)): 327.442 RLU | RLU, fluorescence trace (Time (s) 136.781 (TCA, TLCA: 136.782)): 323.134 RLU | RLU, fluorescence trace (Time (s) 137.547): 342.47 RLU | RLU, fluorescence trace (Time (s) 143.547): 333.389 RLU | RLU, fluorescence trace (Time (s) 149.547): 328.288 RLU | RLU, fluorescence trace (Time (s) 155.547): 355.055 RLU | RLU, fluorescence trace (Time (s) 161.547): 338.156 RLU | RLU, fluorescence trace (Time (s) 167.547): 335.87 RLU | RLU, fluorescence trace (Time (s) 173.547): 351.387 RLU | RLU, fluorescence trace (Time (s) 179.547): 368.586 RLU | RLU, fluorescence trace (Time (s) 185.547): 363.986 RLU | RLU, fluorescence trace (Time (s) 191.547): 372.236 RLU | RLU, fluorescence trace (Time (s) 197.547): 331.461 RLU | RLU, fluorescence trace (Time (s) 203.547): 345.855 RLU | RLU, fluorescence trace (Time (s) 209.547): 348.008 RLU | RLU, fluorescence trace (Time (s) 215.547): 318.834 RLU | RLU, fluorescence trace (Time (s) 221.547): 327.885 RLU | RLU, fluorescence trace (Time (s) 227.547): 345.298 RLU | RLU, fluorescence trace (Time (s) 233.547): 352.884 RLU | RLU, fluorescence trace (Time (s) 239.547): 389.33 RLU | RLU, fluorescence trace (Time (s) 245.547): 399.649 RLU | RLU, fluorescence trace (Time (s) 293.547): 411.409 RLU | RLU, fluorescence trace (Time (s) 299.547): 406.435 RLU | RLU, fluorescence trace (Time (s) 305.547): 380.1 RLU | RLU, fluorescence trace (Time (s) 311.547): 396.715 RLU | RLU, fluorescence trace (Time (s) 317.547): 351.706 RLU | RLU, fluorescence trace (Time (s) 323.547): 391.589 RLU | RLU, fluorescence trace (Time (s) 329.547): 362.796 RLU | RLU, fluorescence trace (Time (s) 335.547): 360.917 RLU | RLU, fluorescence trace (Time (s) 341.547): 350.479 RLU | RLU, fluorescence trace (Time (s) 347.547): 349.654 RLU | RLU, fluorescence trace (Time (s) 353.547): 326.897 RLU | RLU, fluorescence trace (Time (s) 359.547): 343.746 RLU | Activation threshold concentration TAS2R4 (lowest concentration with significantly increased fluorescence vs empty vector (p < 0.01)): 3 µM
SMILES: C[C@H](CCC(=O)O)[C@H]1CC[C@H]2[C@@H]3CC[C@@H]4C[C@H](O)CC[C@]4(C)[C@H]3C[C@H](O)[C@]12C [Deoxycholic Acid, deoxycholic acid]
